Experimental findings from ChEMBL document CHEMBL1130895, “Syntheses of 2-[(3,5-dimethyl-4-methoxypyridyl)alkyl]-benzothiazolidine derivatives as a potential gastric H+/K(+)-ATPase inhibitor” (Bioorg Med Chem Lett, 1998) are described below.

The structures appear in SMILES notation.

Assay [1] concerns the target Potassium-transporting ATPase (Homo sapiens) (UniProt P20648+P51164). Put plainly: Inhibition of H+/K+ ATPase activity in buffered solution (pH 7.4) at concentration […]. It is filed as protein-complex assay.
Assay [2] has as its target Potassium-transporting ATPase (Homo sapiens, UniProt P20648). Put plainly: Inhibition of H+/K+ ATPase activity in buffered solution (pH 7.4). It is filed as protein-complex assay.

Regarding `COc1c(C)cnc(CCC2(C)Nc3cc(C)ccc3S2)c1C` (stereo not given), in assay [1], the inhibition – broadly, the relative decrease from the control value, in per cent – amounted to 0%.

In assay [1], `COc1c(C)cnc(CCC2(C)Nc3cc(F)ccc3S2)c1C` (stereo not given) displayed an inhibition of 81%. For the same molecule, the 50% inhibitory concentration (IC50) (in general, the concentration at which inhibition is half-maximal) in assay [2] stood at 33 µM.

For the molecule `COc1c(C)cnc(CCC2(C)Nc3cc(C(F)(F)F)ccc3S2)c1C` (stereo not given), in assay [1], the inhibition is 84.4%. Moreover, the IC50 in assay [2] came to 24 µM.

As for `COc1c(C)cnc(CCCC2(C)Nc3ccccc3S2)c1C` (stereo not given), the inhibition in assay [1] was 0%.

Molecule `COc1c(C)cnc(CCC2(C)Nc3ccccc3S2)c1C` (stereo not given) showed an inhibition in assay [1] of 96.4%. The molecule further gave an IC50 in assay [2] of 98 µM.

Regarding `COc1c(C)cnc(CCC2(C)Sc3ccccc3N2C)c1C` (stereo not given), the inhibition in assay [1] amounted to 17%.

For `COc1c(C)cnc(CCC2Nc3ccccc3S2)c1C` (stereo not given), the inhibition in assay [1] was found to be 24.6%.

In the case of `COc1ccc2[nH]c([S+]([O-])Cc3ncc(C)c(OC)c3C)nc2c1` (stereo not given), the inhibition in assay [1] is 95%.

For the molecule `CCOC(=O)[C@@H]1CSC(CCc2ncc(C)c(OC)c2C)N1` (stereo not given in full), the inhibition in assay [1] was 19.8%.

`COc1c(C)cnc(/C=C/C2(C)Nc3ccccc3S2)c1C` (stereo not given) yielded an inhibition in assay [1] of 61.1%. The molecule further displayed an IC50 in assay [2] greater than 100 µM.

`CC1(CCc2ccccn2)Nc2ccccc2S1` (stereo not given) returned an inhibition in assay [1] of 0%.

In assay [1], `COc1c(C)cnc(CCC2(C)Nc3ccc(Cl)cc3S2)c1C` (stereo not given) returned an inhibition of 0%.

The molecule `COc1c(C)cnc(CC2Nc3ccccc3S2)c1C` (stereo not given) had an inhibition in assay [1] of 58.5%.

The molecule `COc1c(C)cnc(CCC2(C)Nc3cc(Cl)ccc3S2)c1C` (stereo not given) displayed an inhibition in assay [1] of 20%. Also, the IC50 in assay [2] is greater than 100 µM.

`COc1c(C)cnc(C2Nc3ccccc3S2)c1C` (stereo not given) came in with an inhibition in assay [1] of 0%.
